Read-outs that look alike come from different tables or passages of the source.
Key:
human CB2 receptor = molecular target: T1, human CB2 receptor (Homo sapiens, UniProt P34972); experiment: CB2 radioligand ([3H]CP 55,940) competitive binding assay; settings: for Selectivity CB2: fold difference in selectivity between CB1 and CB2 binding, shown in the column of the receptor with higher affinity
T1 construct: host or cells: CHO-K1 (Chinese hamster ovary) cells, stably transfected; membranes prepared in house
T1 sequence (P34972 whole entry): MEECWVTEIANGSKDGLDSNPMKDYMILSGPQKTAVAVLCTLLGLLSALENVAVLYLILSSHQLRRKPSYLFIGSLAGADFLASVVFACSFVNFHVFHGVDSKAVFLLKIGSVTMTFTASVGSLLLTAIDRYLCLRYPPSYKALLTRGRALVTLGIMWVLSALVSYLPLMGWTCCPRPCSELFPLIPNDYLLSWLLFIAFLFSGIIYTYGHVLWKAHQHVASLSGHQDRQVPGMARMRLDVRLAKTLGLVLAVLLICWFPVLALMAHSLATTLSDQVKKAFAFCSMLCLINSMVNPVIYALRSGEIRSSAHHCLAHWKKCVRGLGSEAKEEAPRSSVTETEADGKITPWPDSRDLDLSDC
Experimental: Compounds of the present disclosure were tested for CB1 receptor binding affinity and for CB2 receptor binding affinity. As used herein, “binding affinity” is represented by the IC50 value, which was experimentally determined as described herein. The lower the IC50 value the higher the binding affinity. A compound of the present disclosure may be said to have “binding selectivity” if it has a higher binding affinity for one receptor compared to the other.
The membranes were prepared from CHO-K1 (Chinese hamster ovary) cells stably transfected with the human CB2 receptor (Cat. #ES-111-C; Perkin Elmer, Boston, Mass.). The cells were grown adherently and maintained in Ham's F12 medium containing 10% fetal bovine serum (FBS), penicillin, streptomycin and geneticin (G418) at 37° C. in a humid atmosphere of 5% CO2 following the manufacturer's instructions.
For membrane preparation the cells were washed with PBS and scraped off the plates in cold homogenization buffer (25 mM HEPES (pH 7.4), 2 mM EDTA) containing protease inhibitor cocktail (Sigma Cat. #P8340). The cell suspension was homogenized with a Pro-PK-01200D Polytron Homogenizer (Pro Scientific) and then centrifuged for 30 min at 120,000×g. The supernatant was discarded and the pellet was re-suspended in the homogenization buffer and stored at −80° C. until the time of use.
In this experiment, 3H radiolabeled CP 55,940, i.e. [3H]CP 55,940 (Perkin Elmer, Boston, Mass.), was used as a radioligand for the CB2 receptor to determine the binding affinity of compounds for the CB2 receptor (Scheme 4; above).
The competition binding experiments (single dose and dose-response) were performed by incubating 0.6 nM of [3H]CP55,940 (specific activity 101 Ci/mmol, Perkin Elmer) and different concentrations of compounds disclosed herein with membranes prepared as above from CHO-K1 cells expressing human CB2 receptor (1 μg of protein/well), 50 mM Tris-HCl (pH 7.4), 5 mM MgCl2, 1 mM CaCl2, and 2 mg/mL BSA.
For the single dose experiments, the compound stocks (usually 10 mM in DMSO) were diluted to working stocks in the binding buffer to give the final compound concentrations of 10 μM and 1 μM. For the dose-response experiments the test compounds were sequentially diluted to provide the desired concentration range for the IC50 determination. In each case the compounds were pre-incubated with the membrane for 20 min, before adding the radioligand.
After incubation with the radioligand for 60 min at 37° C., the incubation was terminated by rapid filtration of assay mixture through MultiScreen®HTS^+ 96-well filter plates (Millipore, Cat. #MSFCNXB), pre-soaked for 60 min with 50 mM Tris-HCl (pH 7.4) containing 0.33% polyethylenimine (PEI). The nonspecific binding (NSB) was determined in the presence of 10 μM unlabelled CP55,940. After drying the filter plate at 50° C. for at least 60 min, the filter-bound radioactivity was determined by scintillation spectrometry using the 1450 MicroBeta Plate Counter (Perkin Elmer, Boston, Mass.). From the dose-response experiments, the IC50 values were determined (see Table 1, CB2 IC50).

human CB1 receptor = molecular target: T2, human CB1 receptor (Homo sapiens, UniProt P21554); experiment: CB1 radioligand ([3H]CP 55,940) competitive binding assay
T2 construct: host or cells: CHO-K1 (Chinese hamster ovary) cells, stably transfected; membranes prepared in house
T2 sequence (P21554 whole entry): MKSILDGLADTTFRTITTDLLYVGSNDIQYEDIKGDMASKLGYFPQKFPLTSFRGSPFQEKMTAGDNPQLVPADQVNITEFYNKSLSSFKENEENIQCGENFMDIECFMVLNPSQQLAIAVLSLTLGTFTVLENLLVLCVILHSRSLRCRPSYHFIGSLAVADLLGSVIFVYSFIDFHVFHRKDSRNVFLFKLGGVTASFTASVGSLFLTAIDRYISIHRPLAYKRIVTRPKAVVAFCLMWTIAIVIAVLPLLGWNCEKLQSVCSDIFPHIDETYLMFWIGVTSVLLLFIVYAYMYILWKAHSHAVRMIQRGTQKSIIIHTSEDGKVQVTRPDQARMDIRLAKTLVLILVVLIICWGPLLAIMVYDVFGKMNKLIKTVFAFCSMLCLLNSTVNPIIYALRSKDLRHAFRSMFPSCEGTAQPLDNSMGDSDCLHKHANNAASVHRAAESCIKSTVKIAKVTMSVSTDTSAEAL

[1] = displacement of 0.6 nM [3H]CP55,940, CHO-K1 membranes expressing human CB2, read-out: CB2 IC50
[2] = displacement of 0.8 nM [3H]CP 55,940, CHO-K1 membranes expressing human CB1, read-out: CB1 IC50

Row | SMILES | IC50 (human CB2 receptor; [1]) | Selectivity CB2 (human CB2 receptor) | IC50 (human CB1 receptor; [2]) | IC50 (human CB2 receptor) | IC50 (human CB1 receptor)
1 | CCCCCc1cc(O)c(C/C=C(\C)CCC=C(C)C)c(O)c1C(=O)NC [Compound 1, 3-(3,7-dimethylocta-2,6-dien-1-yl)-2,4-dihydroxy-N-methyl-6-pentylbenzamide] | 1000 to 4990 nM | 4.06 | > 5000 nM | – | –
2 | CCCCCc1cc(O)c(C/C=C(\C)CCC=C(C)C)c(O)c1C(=O)NC1CC1 [Compound 6, N-cyclopropyl-3-(3,7-dimethylocta-2,6-dien-1-yl)-2,4-dihydroxy-6-pentylbenzamide] | 1000 to 4990 nM | 3.41 | 1000 to 4990 nM | – | –
3 | CCCCCc1cc(O)c(C/C=C(\C)CCC=C(C)C)c(O)c1C(=O)Nc1ccccc1 [Compound 10, 3-(3,7-dimethylocta-2,6-dien-1-yl)-2,4-dihydroxy-6-pentyl-N-phenylbenzamide] | 1000 to 4990 nM | 4.86 | > 5000 nM | – | –
4 | CCCCCc1cc(O)c(C/C=C(\C)CCC=C(C)C)c(O)c1C(=O)Nc1ccc(OC)cc1 [Compound 11, 3-(3,7-dimethylocta-2,6-dien-1-yl)-2,4-dihydroxy-N-(4-methoxyphenyl)-6-pentylbenzamide] | 500 to 990 nM | 2.35 | 1000 to 4990 nM | – | –
5 | CCCCCc1cc(O)c(C/C=C(\C)CCC=C(C)C)c(O)c1C(=O)NCc1ccccc1 [Compound 14, N-benzyl-3-(3,7-dimethylocta-2,6-dien-1-yl)-2,4-dihydroxy-6-pentylbenzamide] | 1000 to 4990 nM | 8.57 | > 5000 nM | – | –
6 | CCCCCc1cc(O)c(C/C=C(\C)CCC=C(C)C)c(O)c1C(=O)N1CCOCC1 [Compound 39] | < 500 nM | 24.32 | > 5000 nM | – | –
7 | CCCCCc1cc(O)c(C/C=C(\C)CCC=C(C)C)c(O)c1C(=O)N1CCCC1 [Compound 41, (3-(3,7-dimethylocta-2,6-dien-1-yl)-2,4-dihydroxy-6-pentylphenyl)(pyrrolidin-1-yl)methanone] | 1000 to 4990 nM | 11.54 | > 5000 nM | – | –
8 | CCCCCc1cc(O)c(C/C=C(\C)CCC=C(C)C)c(O)c1C(=O)N(CC)CC [Compound 50, 3-(3,7-dimethylocta-2,6-dien-1-yl)-N,N-diethyl-2,4-dihydroxy-6-pentylbenzamide] | – | 4.80 | – | 1000 to 4990 nM | > 5000 nM
9 | CCCCCc1cc(O)c(CC=C(C)CCC=C(C)C)c(O)c1CN(C)C(=O)OC [Compound 58, methyl (3-(3,7-dimethylocta-2,6-dien-1-yl)-2,4-dihydroxy-6-pentylbenzyl)(methyl)carbamate] | < 500 nM | 30.00 | 1000 to 4990 nM | – | –
10 | CCCCCc1c(CN(C)C(=O)OC)c(O)c(CC=C(C)CCC=C(C)C)c(O)c1CN(C)C(=O)OC [Compound 59, dimethyl ((5-(3,7-dimethylocta-2,6-dien-1-yl)-4,6-dihydroxy-2-pentyl-1,3-phenylene)bis(methylene))bis(methylcarbamate)] | 500 to 990 nM | 1.49 | 500 to 990 nM | – | –
11 | CCCCCc1cc(O)c(C/C=C(\C)CCC=C(C)C)c(O)c1C(=O)Nc1ccc(F)cc1 [Compound 60, 3-(3,7-dimethylocta-2,6-dien-1-yl)-N-(4-fluorophenyl)-2,4-dihydroxy-6-pentyl benzamide] | < 500 nM | 2.52 | 1000 to 4990 nM | – | –
12 | CCCCCc1cc(O)c(C/C=C(\C)CCC=C(C)C)c(O)c1C(=O)NCc1ccc(F)cc1 [Compound 61, 3-(3,7-dimethylocta-2,6-dien-1-yl)-N-(4-fluorobenzyl)-2,4-dihydroxy-6-pentylbenzamide] | < 500 nM | 118.29 | 500 to 990 nM | – | –
13 | CCCCCc1cc(O)c(C/C=C(\C)CCC=C(C)C)c(O)c1C(=O)NCc1cccnc1 [Compound 62, 3-(3,7-dimethylocta-2,6-dien-1-yl)-2,4-dihydroxy-6-pentyl-N-(pyridin-3-ylmethyl)benzamide] | 500 to 990 nM | 4.71 | 1000 to 4990 nM | – | –
14 | CCCCCc1cc(O)c(C/C=C(\C)CCC=C(C)C)c(O)c1C(=O)Nc1cccnc1 [Compound 63, 3-(3,7-dimethylocta-2,6-dien-1-yl)-2,4-dihydroxy-6-pentyl-N-(pyridin-3-yl) benzamide] | – | 2.20 | – | 1000 to 4990 nM | 1000 to 4990 nM
